Seven molecules from ChEMBL document CHEMBL3817821, “Design and synthesis of thiamine analogues to study their binding to the ECF transporter for thiamine in bacteria” (Medchemcomm, 2016) can be followed below.

pKd: −log10 of the molar value.

Assay [1] is described as follows: Binding affinity to His8-tagged Lactococcus lactis ThiT expressed in Lactococcus lactis NZ9000 cells by intrinsic fluorescence titration assay. It counts as cell-based.
The nature of assay [2]: Binding affinity to His8-tagged Lactococcus lactis ThiT expressed in Lactococcus lactis NZ9000 cells by isothermal […] analysis. It counts as cell-based.
Assay [3] is described as follows: Binding affinity to Lactococcus lactis ThiT Gly129Ala mutant.

Regarding `Cc1c(Cc2cnc(C(F)(F)F)nc2N)csc1CCO`, the negative-log Kd (pKd) (as a rule, the negative decadic logarithm of the Kd, by convention in mol/L) in assay [1] was 8.07.

For `Cc1c(Cc2cnc(N)nc2N)csc1CCO`, the pKd in assay [2] was 5.54.

With `Cc1ncc(Cc2csc(CCO)c2C)c(N)n1` [3-DEAZATHIAMINE], in assay [1], the pKd is 8.37.

`CCc1ncc(Cc2csc(CCO)c2C)c(N)n1` showed a negative logarithm of the Kd (pKd) in assay [1] of 8.30.

In assay [1], `Cc1c(Cc2cnc(C(C)C)nc2N)csc1CCO` showed a negative logarithm of the Kd (pKd) of 7.87.

Consider `Cc1c(Cc2cncnc2N)csc1CCO`, for which the pKd in assay [1] was 5.99.

In the case of `Cc1ncc(C[n+]2csc(CCO)c2C)c(N)n1` [THIAMINE], the results for the pKd in assay [3] and in assay [1] were 7.47 and 9.91, respectively.
